Data set [1] is described as follows: Molar enthalpy of transition or fusion. The settings on record: Crystal; DSC.
For data set [2] the following is noted: Crystal; DTA.

We go through one compound from the NIST ThermoML archive (doi:10.1021/acs.jced.6b00361).

± gives the expanded uncertainty stated by the source.

As to `O=C(O)C=Cc1ccc(O)cc1` [3-(4-hydroxyphenyl)-2-propenoic acid], in data set [1], the “Molar enthalpy of transition or fusion” value stood at 8.2 ± 0.239 kcal/mol. Also, the Normal melting temperature in data set [2] stood at 221.2 ± 0.5 °C.
